Reference: ChEMBL document CHEMBL3779873, “Rubrolide analogues and their derived lactams as potential anticancer agents” (Medchemcomm, 2016)
≈ marks a conversion by molar mass, not a printed value.

Columns and labels:
[1] = tested on: HT-29; assay: Cytotoxicity against human HT-29 cells; type: functional; settings: read-out: ED50 (the source's name)
[2] = Cytotoxicity against human OVCAR8 cells assessed as reduction in cell viability at 25 ug/mL after 72 hrs by MTT assay; type: functional, OVCAR-8
[3] = Cytotoxicity against human HCT116 cells assessed as reduction in cell viability at 25 ug/mL after 72 hrs by MTT assay; type: functional, HCT-116
[4] = Cytotoxicity against human SF295 cells assessed as reduction in cell viability at 25 ug/mL after 72 hrs by MTT assay; type: functional, SF-295
[5] = Cytotoxicity against human OVCAR8 cells after 72 hrs by MTT assay; type: functional, OVCAR-8
[6] = Cytotoxicity against human HCT116 cells after 72 hrs by MTT assay; type: functional, HCT-116
[7] = Cytotoxicity against human HL60 cells after 72 hrs by MTT assay; type: functional, HL-60
[8] = Cytotoxicity against human SF295 cells after 72 hrs by MTT assay; type: functional, SF-295

Row | Compound | EC50 [1] | Activity [2] | Activity [3] | Activity [4] | RC50 [5] | RC50 [6] | RC50 [7] | RC50 [8]
1 | O=C1O/C(=C\c2ccc(O)c(Br)c2)C(c2ccc(O)cc2)=C1Cl | 1.2 µg/mL (≈ 3.05 µM) | – | – | – | – | – | – | –
2 | COc1ccccc1C1=C(Br)C(=O)N(CC(C)C)C1(O)Cc1ccc(C(F)(F)F)cc1 (stereo unspecified) | – | 21.61% | 78.84% | 67.94% | – | – | – | –
3 | COc1ccc(Cl)cc1C1=C(Br)C(=O)O/C1=C\c1ccc(F)cc1 | – | 32.6% | 55.49% | 84.72% | – | – | – | –
4 | COc1ccc(Br)cc1C1=C(Br)C(=O)N(CC(C)C)/C1=C\c1cccc(Cl)c1 | – | 52.15% | 86.98% | 72.36% | – | – | – | –
5 | COc1cccc(Cc2n[nH]c(=O)c(Br)c2-c2cc(Br)ccc2OC)c1 | – | 10.69% | 10.78% | 30.95% | – | – | – | –
6 | O=C1O/C(=C\c2ccc(O)c(Br)c2)C(c2ccc(O)c(Br)c2)=C1Cl | 1.2 µg/mL (≈ 2.54 µM) | – | – | – | – | – | – | –
7 | COc1ccc(Br)cc1C1=C(Br)C(=O)N(CC(C)C)/C1=C/c1cccc(Cl)c1 | – | 93.39% | 93.44% | 90.65% | 4.18 µM | 5.52 µM | 3.46 µM | 8.03 µM
8 | COc1cccc(/C=C2\OC(=O)C(Br)=C2c2cc(Cl)ccc2OC)c1 | – | 97.92% | 97.09% | 48.09% | – | – | – | –
9 | COc1ccc(Br)cc1-c1c(Cc2ccccc2Cl)n[nH]c(=O)c1Br | – | 27.93% | 38.1% | 47.29% | – | – | – | –
10 | COc1ccc(Cl)cc1-c1c(Cc2ccc(C(F)(F)F)cc2)n[nH]c(=O)c1Br | – | 53.87% | 97.73% | 73.87% | – | – | – | –
11 | CCCN1C(=O)C(Cl)=C(Cl)C1(O)Cc1ccc(F)cc1 (stereo unspecified) | – | 9.25% | 25.82% | 10.95% | – | – | – | –
12 | COc1ccc(Cl)cc1C1=C(Br)C(=O)O/C1=C\c1ccc(C(F)(F)F)cc1 | – | 96.84% | 91.81% | 80.1% | 7.51 µM | 12.66 µM | 5.5 µM | 14.12 µM
13 | COc1ccc(Cl)cc1-c1c(Cc2ccc(F)cc2)n[nH]c(=O)c1Br | – | 42.17% | 14.71% | 18.95% | – | – | – | –
14 | COc1ccc(Br)cc1C1=C(Br)C(=O)O/C1=C\c1ccc(Br)cc1 | – | 98.28% | 97.53% | 75.68% | – | – | – | –
15 | O=C1O/C(=C\c2ccc([N+](=O)[O-])cc2)C(Cl)=C1Cl | – | 98.2% | 93.05% | 84.12% | 9.51 µM | 22.76 µM | 8.98 µM | 29.37 µM
16 | COc1ccccc1C1=C(Br)C(=O)N(CC(C)C)/C1=C/c1ccc(C(F)(F)F)cc1 | – | 75.07% | 88.8% | 84.72% | – | – | – | –
17 | COc1ccc(Br)cc1C1=C(Br)C(=O)N(CC(C)C)C1(O)Cc1ccc(Br)cc1 (stereo unspecified) | – | 32.1% | 82.39% | 56.18% | – | – | – | –
18 | CCCN1C(=O)C(Cl)=C(Cl)/C1=C\c1ccc(F)cc1 | – | 99.07% | 64.83% | 97.74% | – | – | – | –
19 | COc1ccc(Br)cc1C1=C(Br)C(=O)O/C1=C\c1ccc(F)cc1 | – | 94.68% | 94.87% | 82.06% | 5.17 µM | 13.06 µM | 9.8 µM | 15.44 µM
20 | CC(C)CN1C(=O)C(Cl)=C(Cl)C1(O)Cc1ccc(Br)cc1 (stereo unspecified) | – | 13.42% | 49.89% | 42.06% | – | – | – | –
21 | COc1cccc(/C=C2\C(c3cc(Cl)ccc3OC)=C(Br)C(=O)N2CC(C)C)c1 | – | 55.28% | 75.51% | 79.36% | – | – | – | –
22 | COc1ccc(Br)cc1C1=C(Br)C(=O)N(CC(C)C)/C1=C/c1ccc(Br)cc1 | – | 90.66% | 97.98% | 53.77% | – | – | – | –
23 | O=C1O/C(=C\c2ccc(C(F)(F)F)cc2)C(Cl)=C1Cl | – | 98.2% | 76.92% | 92.21% | – | – | – | –

Row | Compound | EC50 [1] | Activity [2] | Activity [3] | Activity [4] | RC50 [5] | RC50 [6] | RC50 [7] | RC50 [8]
24 | O=C1O/C(=C\c2ccc3c(c2)OCO3)C(Cl)=C1Cl | – | 94.9% | 53.64% | 87.84% | – | – | – | –
25 | O=C1O/C(=C\c2cccc(Cl)c2)C(Cl)=C1Cl | – | 99.86% | 62.17% | 86.08% | – | – | – | –
26 | COc1ccc(C)cc1C1=C(Br)C(=O)N(CC(C)C)C1(O)Cc1ccccc1Cl (stereo unspecified) | – | 44.39% | 78.5% | 63.57% | – | – | – | –
27 | COc1ccc(Br)cc1C1=C(Br)C(=O)N(CC(C)C)/C1=C\c1ccc(Br)cc1 | – | 25.49% | 44.22% | 30.25% | – | – | – | –
28 | COc1ccc(Br)cc1C1=C(Br)C(=O)N(CC(C)C)C1(O)Cc1cccc(Cl)c1 (stereo unspecified) | – | 98.49% | 92.75% | 78.09% | – | – | – | –
29 | COc1cccc(/C=C2/C(c3cc(Cl)ccc3OC)=C(Br)C(=O)N2CC(C)C)c1 | – | 42.28% | 38.65% | 25.57% | – | – | – | –
30 | COc1ccc(C)cc1C1=C(Br)C(=O)N(CC(C)C)/C1=C\c1ccccc1Cl | – | 20.46% | 77.02% | 61.86% | – | – | – | –
31 | COc1cccc(CC2(O)C(c3cc(Cl)ccc3OC)=C(Br)C(=O)N2CC(C)C)c1 (stereo unspecified) | – | 27% | 67.25% | 69.2% | – | – | – | –
32 | COc1ccccc1C1=C(Br)C(=O)N(CC(C)C)/C1=C\c1ccc(C(F)(F)F)cc1 | – | 47.91% | 79.09% | 51.01% | – | – | – | –
33 | O=C1O/C(=C\c2ccc(Cl)cc2)C(Cl)=C1Cl | – | 0% | 95.81% | 48.84% | – | – | – | –
34 | COc1ccc(C)cc1C1=C(Br)C(=O)N(CC(C)C)/C1=C/c1ccccc1Cl | – | 34.8% | 19.23% | 6.91% | – | – | – | –
35 | COc1ccccc1C1=C(Br)C(=O)O/C1=C\c1ccc(C(F)(F)F)cc1 | – | 98.85% | 84.46% | 71.31% | – | – | – | –
36 | CC(C)CN1C(=O)C(Cl)=C(Cl)/C1=C/c1ccc(Br)cc1 | – | 54.45% | 97.93% | 48.29% | – | – | – | –
37 | O=C1O/C(=C\c2ccccc2Br)C(Cl)=C1Cl | – | 93.14% | 97.58% | 92.81% | 11.64 µM | 32.22 µM | 10.01 µM | 32.64 µM
38 | COc1ccc(Br)cc1-c1c(Cc2ccc(C(F)(F)F)cc2)n[nH]c(=O)c1Br | – | 46.18% | 98.03% | 74.92% | – | – | – | –
39 | COc1ccc(Cl)cc1-c1c(Cc2cccc([N+](=O)[O-])c2)n[nH]c(=O)c1Br | – | 37.42% | 31.84% | 47.34% | – | – | – | –
40 | O=C1O/C(=C\c2ccc(F)cc2)C(Cl)=C1Cl | – | 98.99% | 97.68% | 68.44% | – | – | – | –
41 | COc1ccc(C)cc1C1=C(Br)C(=O)O/C1=C\c1ccccc1Cl | – | 26.18% | 35.84% | 2.02% | – | – | – | –
42 | COc1ccc(Br)cc1-c1c(Cc2ccc(F)cc2)n[nH]c(=O)c1Br | – | 29.08% | 59.8% | 48.14% | – | – | – | –
43 | COc1ccc(Br)cc1C1=C(Br)C(=O)O/C1=C\c1ccccc1Cl | – | 57.61% | 74.4% | 49.4% | – | – | – | –
44 | CC(C)CN1C(=O)C(Cl)=C(Cl)/C1=C\c1ccc(Br)cc1 | – | 52.94% | 57.48% | 58.59% | – | – | – | –
45 | COc1ccc(Cl)cc1C1=C(Br)C(=O)O/C1=C\c1ccc([N+](=O)[O-])cc1 | – | 53.71% | 92.2% | 82.86% | – | – | – | –
